Reference: PubChem BioAssay AID330 (DTP/NCI, 2004)
“And” between values parts separate entries of the source, which are not always exact repeats. Identical values can stand only once. Inconclusive results and toxic doses are left out. Peptide text beside a SMILES is read from it.

System: P388 leukemia ip, CD2F1 mice, survival T/C
Test: NCI In Vivo Anticancer Drug Screen. Data for tumor model P388 Leukemia (intraperitoneal) in CD2F1 (CDF1) mice
Settings: endpoint: median survival time, higher = longer survival
Method in brief: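 Mice carrying the transplanted tumor received test compound or vehicle. Survival was recorded in each group, and the value is the treated-group measurement divided by that of the vehicle-treated control group.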

[1] = dose: 100.0 mg/kg/injection, schedule: Q04DX003 (ip), vehicle: saline
[2] = dose: 200.0 mg/kg/injection, schedule: Q04DX003 (ip), vehicle: saline
[3] = dose: 50.0 mg/kg/injection, schedule: Q01DX005 (ip), vehicle: Klucel (hydroxypropylcellulose) (HPC)
[4] = dose: 100.0 mg/kg/injection, schedule: Q01DX005 (ip), vehicle: Klucel (hydroxypropylcellulose) (HPC)
[5] = dose: 200.0 mg/kg/injection, schedule: Q01DX005 (ip), vehicle: Klucel (hydroxypropylcellulose) (HPC)
[6] = dose: 50.0 mg/kg/injection, schedule: Q01DX009 (ip), vehicle: saline with Tween-80
[7] = dose: 100.0 mg/kg/injection, schedule: Q01DX009 (ip), vehicle: saline with Tween-80
[8] = dose: 12.5 mg/kg/injection, schedule: Q01DX009 (ip), vehicle: saline with Tween-80
[9] = dose: 25.0 mg/kg/injection, schedule: Q01DX009 (ip), vehicle: saline with Tween-80
[10] = dose: 200.0 mg/kg/injection, schedule: Q01DX009 (ip), vehicle: saline with Tween-80
[11] = dose: 50.0 mg/kg/injection, schedule: Q01DX005 (ip), vehicle: saline with Tween-80
[12] = dose: 100.0 mg/kg/injection, schedule: Q01DX005 (ip), vehicle: saline with Tween-80
[13] = dose: 50.0 mg/kg/injection, schedule: Q01DX009 (ip), vehicle: Klucel (hydroxypropylcellulose) (HPC)
[14] = dose: 100.0 mg/kg/injection, schedule: Q01DX009 (ip), vehicle: Klucel (hydroxypropylcellulose) (HPC)
[15] = dose: 200.0 mg/kg/injection, schedule: Q01DX009 (ip), vehicle: Klucel (hydroxypropylcellulose) (HPC)

SMILES: C=C1C(=O)C23C(OC(=O)CCC)C1CCC2C12COC3(O)C(O)C1C(C)(C)CCC2O (stereo not given)
- T/C (dose: 3.75 mg/kg/injection, schedule: Q01DX009 (ip), vehicle: saline with Tween-80): 102 % of control
- T/C (dose: 7.5 mg/kg/injection, schedule: Q01DX009 (ip), vehicle: saline with Tween-80): 101 % of control
- T/C (dose: 15.0 mg/kg/injection, schedule: Q01DX009 (ip), vehicle: saline with Tween-80): 107 % of control
- T/C (dose: 30.0 mg/kg/injection, schedule: Q01DX009 (ip), vehicle: saline with Tween-80): 111 % of control

SMILES: O=C(O)COc1nc(Cl)c(Cl)cc1Cl
- T/C (dose: 60.0 mg/kg/injection, schedule: Q01DX005 (ip), vehicle: Klucel (hydroxypropylcellulose) (HPC)): 101 % of control and 104 % of control
- T/C (dose: 120.0 mg/kg/injection, schedule: Q01DX005 (ip), vehicle: Klucel (hydroxypropylcellulose) (HPC)): 103 % of control
- T/C (dose: 240.0 mg/kg/injection, schedule: Q01DX005 (ip), vehicle: Klucel (hydroxypropylcellulose) (HPC)): 113 % of control and 94 % of control

SMILES: CC(C)(C#N)NCCNC(C)(C)C#N
- T/C (dose: 6.25 mg/kg/injection, schedule: Q01DX001 (ip), vehicle: saline): 108 % of control
- T/C (dose: 12.5 mg/kg/injection, schedule: Q01DX001 (ip), vehicle: saline): 99 % of control

SMILES: OC1C2CCCC1C(c1ccccc1)NC2c1ccccc1 (stereo not given)
- T/C [1]: 100 % of control and 94 % of control
- T/C [2]: 100 % of control and 94 % of control
- T/C (dose: 400.0 mg/kg/injection, schedule: Q04DX003 (ip), vehicle: saline): 100 % of control

SMILES: COc1ccc2nc3cc(Cl)ccc3c(NC(C)CCCN(C)C)c2n1 (stereo not given)
- T/C (dose: 50.0 mg/kg/injection, schedule: Q01DX005 (ip), vehicle: saline): 102 % of control
- T/C (dose: 100.0 mg/kg/injection, schedule: Q01DX005 (ip), vehicle: saline): 110 % of control

SMILES: COc1ccc(CCNC(=O)c2sc3ccccc3c2Cl)cc1OC
- T/C [3]: 88 % of control
- T/C [4]: 91 % of control
- T/C [5]: 99 % of control

SMILES: COc1ccc([B-]23OCC[N+]2(CNC(=O)c2ccccc2O)CCO3)cc1 (stereo not given)
- T/C [3]: 103 % of control
- T/C [4]: 112 % of control
- T/C [5]: 105 % of control

SMILES: NNc1ncnc2c1ncn2C1OC(CO)C(O)C1O (stereo not given)
- T/C (dose: 19.8 mg/kg/injection, schedule: Q01DX009 (ip), vehicle: saline): 120 % of control
- T/C (dose: 30.0 mg/kg/injection, schedule: Q01DX009 (ip), vehicle: saline): 150 % of control
- T/C (dose: 45.0 mg/kg/injection, schedule: Q01DX009 (ip), vehicle: saline): 160 % of control
- T/C [6]: 120 % of control
- T/C (dose: 66.0 mg/kg/injection, schedule: Q01DX009 (ip), vehicle: saline with Tween-80): 112 % of control
- T/C [7]: 163 % of control
- T/C [1]: 118 % of control
- T/C [2]: 86 % of control

SMILES: Cn1cccc1[N+](=O)[O-]
- T/C [8]: 100 % of control
- T/C [9]: 101 % of control
- T/C [6]: 100 % of control and 104 % of control
- T/C [7]: 101 % of control
- T/C [10]: 108 % of control

SMILES: Nc1cc([N+](=O)[O-])ccc1O
- T/C (dose: 100.0 mg/kg/injection, schedule: Q01DX009 (ip), vehicle: saline): 102 % of control and 105 % of control
- T/C (dose: 200.0 mg/kg/injection, schedule: Q01DX009 (ip), vehicle: saline): 101 % of control
- T/C (dose: 600.0 mg/kg/injection, schedule: Q01DX009 (ip), vehicle: saline): 91 % of control

SMILES: CCOc1ccc(NC(=O)OCCN2CCN(CCc3ccccc3)C(C)C2)cc1 (stereo not given)
- T/C [8]: 97 % of control
- T/C [9]: 94 % of control
- T/C [6]: 100 % of control

SMILES: CC(N)C(=O)NCC(=O)NC(CO)C(=O)NC(CCC(=O)O)C(=O)O (stereo not given) (H-AGSE-OH; configuration not given here)
- T/C (dose: 9.0 mg/kg/injection, schedule: Q01DX005 (ip), vehicle: water): 96 % of control
- T/C (dose: 18.0 mg/kg/injection, schedule: Q01DX005 (ip), vehicle: water): 102 % of control
- T/C (dose: 36.0 mg/kg/injection, schedule: Q01DX005 (ip), vehicle: water): 100 % of control
- T/C (dose: 72.0 mg/kg/injection, schedule: Q01DX005 (ip), vehicle: water): 110 % of control
- T/C (dose: 144.0 mg/kg/injection, schedule: Q01DX005 (ip), vehicle: water): 103 % of control

SMILES: Cc1cc(C(O)(C(F)(F)F)C(F)(F)F)c2c(c1)C(C(F)(F)F)(C(F)(F)F)OC(C)(C)N2
- T/C [3]: 100 % of control
- T/C [4]: 100 % of control
- T/C [5]: 101 % of control

SMILES: N#CN=CN1CCC(Cc2ccccc2)CC1
- T/C [6]: 101 % of control
- T/C [7]: 101 % of control

SMILES: CC(C)C(O)C1CCOS1(=O)=O (stereo not given)
- T/C [1]: 95 % of control
- T/C [2]: 101 % of control

SMILES: C/C(=N\NC(N)=Nc1ccccc1)c1ccc2c(c1)Cc1ccccc1-2
- T/C (dose: 25.0 mg/kg/injection, schedule: Q04DX002 (ip), vehicle: saline with Tween-80): 103 % of control
- T/C (dose: 50.0 mg/kg/injection, schedule: Q04DX002 (ip), vehicle: saline with Tween-80): 94 % of control
- T/C (dose: 100.0 mg/kg/injection, schedule: Q04DX002 (ip), vehicle: saline with Tween-80): 104 % of control

SMILES: Cc1cc(OP2(=O)Nc3ccccc3-c3ccccc3N2)ccc1Cl
- T/C [11]: 98 % of control
- T/C [12]: 89 % of control

SMILES: CC1=CC2c3cccc4[nH]cc(c34)CC2N(C)C1 (stereo not given)
- T/C (dose: 2.5 mg/kg/injection, schedule: Q01DX009 (ip), vehicle: saline): 114 % of control and 116 % of control
- T/C (dose: 5.0 mg/kg/injection, schedule: Q01DX009 (ip), vehicle: saline): 117 % of control
- T/C (dose: 10.0 mg/kg/injection, schedule: Q01DX009 (ip), vehicle: saline): 116 % of control and 120 % of control

SMILES: COc1cc(/C=C/c2cc(OC)c(OC)c(OC)c2)oc(=O)c1
- T/C [13]: 98 % of control
- T/C [14]: 104 % of control
- T/C [15]: 99 % of control

SMILES: Clc1ccc(N=C(c2ccncc2)c2cc(Cl)ccc2Cl)cc1
- T/C [6]: 109 % of control
- T/C [7]: 92 % of control

SMILES: COc1cc(O)c2c(O)c3c(c4c2c1[C@]1(C4)C(C)=CCCC1(C)C)[C@H](O)[C@@]1(O)CC(=O)C(C(N)=O)=C(O)[C@@]1(O)C3=O
- T/C (dose: 6.25 mg/kg/injection, schedule: Q04DX003 (ip), vehicle: saline with Tween-80): 100 % of control
- T/C (dose: 12.0 mg/kg/injection, schedule: Q01DX009 (ip), vehicle: saline with Tween-80): 112 % of control
- T/C (dose: 12.5 mg/kg/injection, schedule: Q04DX003 (ip), vehicle: saline with Tween-80): 100 % of control
- T/C (dose: 25.0 mg/kg/injection, schedule: Q01DX009 (ip), vehicle: Klucel (hydroxypropylcellulose) (HPC)): 120 % of control and 121 % of control
- T/C (dose: 25.0 mg/kg/injection, schedule: Q04DX003 (ip), vehicle: saline with Tween-80): 113 % of control
- T/C [13]: 111 % of control

SMILES: O=C(O)c1cccc2cccc(-c3c4ccc(=O)cc-4oc4cc(O)ccc34)c12
- T/C (dose: 60.0 mg/kg/injection, schedule: Q01DX005 (ip), vehicle: saline with Tween-80): 101 % of control
- T/C (dose: 120.0 mg/kg/injection, schedule: Q01DX005 (ip), vehicle: saline with Tween-80): 100 % of control
- T/C (dose: 240.0 mg/kg/injection, schedule: Q01DX005 (ip), vehicle: saline with Tween-80): 98 % of control

SMILES: CCSc1ccc([N+](=O)[O-])c2c(SCC)c3ccccc3nc12
- T/C [11]: 92 % of control
- T/C [12]: 95 % of control
- T/C (dose: 200.0 mg/kg/injection, schedule: Q01DX005 (ip), vehicle: saline with Tween-80): 99 % of control

SMILES: N#CC(=S)N(C(=O)c1ccc(Cl)cc1)c1ccccc1Cl
- T/C (dose: 60.0 mg/kg/injection, schedule: Q01DX005 (ip), vehicle: Klucel + Tween-80): 103 % of control
- T/C (dose: 120.0 mg/kg/injection, schedule: Q01DX005 (ip), vehicle: Klucel + Tween-80): 112 % of control

SMILES: COC1/C=C/OC2(C)Oc3c(C)c(O)c4c(O)c(c(/C=N/N5C(C)CN(Cc6ccc(O)cc6)CC5C)c(O)c4c3C2=O)NC(=O)C(C)=C/C=C/C(C)C(O)C(C)C(O)C(C)C(OC(C)=O)C1C (stereo not given)
- T/C [6]: 95 % of control
- T/C [7]: 99 % of control
- T/C [10]: 96 % of control

SMILES: COc1cc2c(O)c(c1)CCCC1=CC(=O)C=C(CCC2)C1=O
- T/C (dose: 100.0 mg/kg/injection, schedule: Q01DX001 (ip), vehicle: saline with Tween-80): 99 % of control
- T/C (dose: 200.0 mg/kg/injection, schedule: Q01DX001 (ip), vehicle: saline with Tween-80): 101 % of control
- T/C (dose: 400.0 mg/kg/injection, schedule: Q01DX001 (ip), vehicle: saline with Tween-80): 94 % of control

SMILES: C/C=C/C(=O)OC(C)CCC(CC)CCCC (stereo not given)
- T/C [14]: 100 % of control
- T/C [15]: 96 % of control
- T/C (dose: 400.0 mg/kg/injection, schedule: Q01DX009 (ip), vehicle: Klucel (hydroxypropylcellulose) (HPC)): 91 % of control

SMILES: CCC(=O)C(=O)c1ccc(O)cc1O
- T/C [13]: 108 % of control
- T/C [14]: 108 % of control
- T/C [15]: 105 % of control
